From patent publication US5804592A, “Method for improving disturbed behavior and elevating mood in humans” (Unimed Pharmaceuticals, Inc., priority 1997, dated 1998)
Entries after “also recorded” stand apart in the source; their conditions may differ.

Assays:
[1] = Double blind placebo-controlled crossover study: Cohen-Mansfield Agitation Inventory (CMAI), disturbed behavior; assay type: in vivo, human
Description: (§1) Each patient in the this example was diagnosed with "probable" DAT by a neurologist according to DSM III-R and NINCDS-ARDDA criteria. These generally accepted criteria include deficits in two or more areas of cognition, progressive worsening of memory and other cognitive functions, no disturbances of consciousness, and absence of systemic disorders or other brain disease that in and of themselves could account for the progressive deficits in memory and cognition. (McKhann et al., Neurology, 34: 939-944 (1984). Each patient received physical examination and laboratory examination including complete blood count with differential, liver function tests, thyroid function tests including TSH, iron binding capacity, BUN, creatinine, and electrolytes.
(§2) Eleven of the patients were on a psychoactive medication before the beginning of dronabinol study and were maintained on the same medication during the study period. Four patients were receiving regular doses of neuroleptics (perphenazine, thiothixene, haloperidol or thioridazine), 4 patients were receiving regular doses of benzodiazepienes (3 lorazepam and one alprazolam), and 8 patients were receiving regular doses of antidepressants. The antidepressants included sertraline (8 patients), trazodone (4 patients) and desipramine (1 patient). Three patients were on both sertraline and trazodone, and one patient was switched from trazodone to doxepin. Antidepressant treatment was initiated at least 4 weeks before the start of the study and the mean duration of antidepressant treatment before study initiation was 7 months. Eleven patients had orders for psychoactive medications as needed (PRN). These included lorazepam in 4 patients and alprazolam, trazodone, doxepin, haloperidol, perphenazine and thioridazine in one patient each. The patients received these medications very rarely, on the average 9.7 doses/6 weeks during the placebo administration and 7.2 doses/6 weeks during dronabinol treatment.
(§3) A double blind placebo-controlled crossover design was used with each period of study lasting six weeks. Dronabinol or placebo was administered on a fixed dose schedule, 2.5 mg capsule or identically looking placebo capsule every morning and noon. Subjects were randomly assigned to placebo first or dronabinol first groups. Possible side effects were determined every week by asking the primary caregivers if the patient experienced any of a list of possible symptoms. A list of these symptoms observed in twelve patients over seventy weeks is identified in Table 2 below.
(§4) Baseline measurements were taken the week prior to randomization and treatment initiation. Behavior measures were obtained weekly for the 12 week duration of the trial. Repeated measures on these variables were therefore available for six weeks on dronabinol and six weeks on placebo for each subject.
The disturbed behavior was measured by the Cohen-Mansfield Agitation Inventory (CMAI)(Cohen-Mansfieldet al., J. Gerontol. Med. Sci., 44: M77-84 (1989)) which is a widely used instrument with good psychometric properties. Twenty nine items of this inventory are rated by frequency (from 1=never to 7=constantly or almost constantly) and by disruptiveness (from 1=not at all to 5=extremely). For each observation period, the total score was calculated by multiplying the frequency and disruptiveness of individual items and adding the products. The CMAI items observed are identified in Table 3 below.
(§5) Statistical analysis was performed using Statistix 4.1 (Analytic Software). Repeated measures ANOVA for the 12 weeks of the study was done to test for effects of order, time and treatment on-study variables.

[2] = Double blind placebo-controlled crossover study: Lawton Observed Affect Scale - Past (negative and positive affect); assay type: in vivo, human
Description: as §1, §3, §4
Patients' affect was measured using Lawton Observed Affect Scale - Past (Lawton et al., J. Gerontol. [B], 51B: P3-14 (1996)). This scale consists of six items, three measuring positive affect (pleasure, interest and contentment) and three measuring negative affect (anger, anxiety/fear and depression/sadness) on a 5 point scale (from 1=never to 5=more than 3 time a day). The negative and positive affect scores were calculated by adding scores of the appropriate items.
as §5

[3] = Possible side effects determined every week by asking the primary caregivers (Table 2); assay type: in vivo, human
Description: as §1, §3

[4] = Use of as needed (PRN) psychoactive medication during the study; assay type: in vivo, human; conditions: during dronabinol treatment; placebo administration 9.7
Description: as §2, with “The patients received these medications very rarely, on the average 9.7 doses/6 weeks during the placebo administration and 7.2 doses/6 weeks during dronabinol treatment.” left out
A double blind placebo-controlled crossover design was used with each period of study lasting six weeks. […] Possible side effects were determined every week by asking the primary caregivers if the patient experienced any of a list of possible symptoms. […]

[5] = AIDS patients, after dronabinol treatment; Gorter 1991, Beal 1995; cited from earlier work
[6] = four compartment model; Agurell et al. 1986; cited from earlier work
[7] = cited from earlier work
[8] = repeated measures ANOVA, df=1,143
[9] = repeated measures ANOVA, df=5,143, dronabinol/placebo crossover
[10] = decrease during the 12 weeks study period (both phases), df=5,143
[11] = dronabinol first vs placebo first, df=5,143
[12] = repeated measures ANOVA, df=5,143
[13] = 12 patients, 2.5 mg capsule every morning and noon, six weeks
[14] = seventy weeks observed, 2.5 mg capsule every morning and noon

CCCCCc1cc(O)c2c(c1)OC(C)(C)[C@@H]1CCC(C)=C[C@@H]21 (relative stereo) [dronabinol, (6aR-trans)-6a,7,8,10a-tetrahydro-6,6,9-trimethyl-3-pentyl-6H-dibenzo[b,d]pyran-1-ol]
Disturbed behavior (CMAI score), change ([1]; during dronabinol treatment, 2.5 mg morning and noon, six weeks): Disturbed behavior decreased during dronabinol treatment
Disturbed behavior (CMAI), persistence of decrease ([1]; placebo period following treatment with dronabinol): this decrease in disturbed behavior persisted during the placebo period following treatment with dronabinol; also recorded: carried over to the following placebo period
CMAI score, F(order×treatment) [1, 8]: 2.78
CMAI score, p for F(order×treatment) [1, 8]: 0.12
CMAI score as percentage of the baseline, F(order×time) [1, 9]: 2.35
CMAI score as percentage of the baseline, p for order×time interaction [1, 9]: 0.05
Disturbed behavior, difference in the second treatment period ([1]; second treatment period of crossover): no difference in the disturbed behavior in the second treatment period
Agitation (CMAI and Observed Affect Scale), change ([1]; two scales: CMAI and Observed Affect Scale): Decreased agitation
Negative affect score, F(time) [2, 10]: 2.46
Negative affect score, p for F(time) [2, 10]: 0.045
Positive affect score, change ([2]; dronabinol and placebo treatments, six weeks each): positive affect remained similar during both treatments; also recorded: did not change the Positive Affect
Negative affect score, decrease by order of treatment ([2]; dronabinol first vs placebo first): the decrease was greater for those who received dronabinol first, compared to those who received placebo first
Negative affect score, F(order×time) [2, 11]: 5.45
Negative affect score, p for F(order×time) [2, 11]: < 0.0005
Negative affect score, change vs placebo periods ([2]; on dronabinol vs placebo periods): decreased more while patients were on dronabinol then during the placebo periods
Negative affect score, F(time×treatment) [2, 12]: 3.98
Negative affect score, p for F(time×treatment) [2, 12]: 0.004
Anxiety/nervousness, percentage of total patients [3, 13]: 92%
Ataxia, percentage of total patients [3, 13]: 16%
Depression, percentage of total patients [3, 13]: 16%
Diarrhea, percentage of total patients [3, 13]: 16%
Emotional lability, percentage of total patients [3, 13]: 92%
Euphoria, percentage of total patients [3, 13]: 58%
Flushing, percentage of total patients [3, 13]: 8%
Hallucination, percentage of total patients [3, 13]: 33%
Headache, percentage of total patients [3, 13]: 8%
Increased confusion, percentage of total patients [3, 13]: 8%
Muscle pain, percentage of total patients [3, 13]: 16%
Paranoid reaction, percentage of total patients [3, 13]: 33%
Somnolence, percentage of total patients [3, 13]: 67%
Sweating, percentage of total patients [3, 13]: 8%
Tiredness, percentage of total patients [3, 13]: 75%
Incidence of seizure ([3]; dronabinol treated patient): one
Euphoria as an adverse reaction, frequency vs placebo ([3]; dronabinol treatment vs placebo periods): reported more frequently and in more patients during the dronabinol treatment than during placebo periods
Somnolence, frequency vs placebo ([3]; patients treated with dronabinol vs patients on placebo): twice as common
Anxiety/nervousness, percentage of weeks [3, 14]: 53%
Ataxia, percentage of weeks [3, 14]: 8%
Depression, percentage of weeks [3, 14]: 6%
Diarrhea, percentage of weeks [3, 14]: 4%
Emotional lability, percentage of weeks [3, 14]: 46%
Euphoria, percentage of weeks [3, 14]: 44%
Flushing, percentage of weeks [3, 14]: 3%
Hallucination, percentage of weeks [3, 14]: 16%
Headache, percentage of weeks [3, 14]: 1%
Increased confusion, percentage of weeks [3, 14]: 3%
Muscle pain, percentage of weeks [3, 14]: 10%
Paranoid reaction, percentage of weeks [3, 14]: 23%
Somnolence, percentage of weeks [3, 14]: 41%
Sweating, percentage of weeks [3, 14]: 3%
Tiredness, percentage of weeks [3, 14]: 36%
PRN psychoactive medication doses, average [4]: 7.2 doses/6 weeks
Mood / sense of well-being [5]: elevated mood or sense of well-being
Initial half-life [6]: four
Terminal half-life [6]: 25 to 36 h
Low levels of dronabinol metabolites detected in urine and feces, time ([7]; after initiation of a supervised abstinence, Dackis et al. 1982): 2-5 weeks
Presence of tetrahydrocannabinol metabolites in the urine, time after ingestion ([7]; urine, after ingestion of marijuana, Ellis et al. 1985): ≤ 77 days
